Assay results as given in the NIST ThermoML archive (doi:10.1016/j.fluid.2005.05.029).

Test: excess molar enthalpy (molar enthalpy of mixing); xn = mol fraction of the nth substance listed
Details: Liquid, Flow calorimetry

CCOC(=O)OCC [diethyl carbonate] + O=C=O
excess molar enthalpy [kcal/mol]
Details | 298.15 K | 303.15 K | 308.15 K
5000 kPa, x2 = 0.1103 | – | -0.299 | -0.335
5000 kPa, x2 = 0.2074 | -0.57 | -0.577 | -0.627
5000 kPa, x2 = 0.2936 | -0.816 | -0.815 | -0.833
5000 kPa, x2 = 0.3706 | -1.03 | -1.06 | -1.06
5000 kPa, x2 = 0.4398 | -1.22 | -1.24 | -1.24
5000 kPa, x2 = 0.5023 | -1.4 | -1.4 | -1.41
5000 kPa, x2 = 0.5591 | -1.53 | -1.55 | –
5000 kPa, x2 = 0.6109 | -1.65 | -1.67 | -1.68
5000 kPa, x2 = 0.6583 | -1.78 | -1.79 | -1.8
5000 kPa, x2 = 0.7019 | -1.89 | -1.89 | -1.9
5000 kPa, x2 = 0.7184 | – | – | -1.94
5000 kPa, x2 = 0.7264 | – | – | -1.95
5000 kPa, x2 = 0.7343 | – | – | -1.85
5000 kPa, x2 = 0.7421 | -1.97 | -1.98 | -1.81
5000 kPa, x2 = 0.7794 | -2.04 | -2.03 | -1.54
5000 kPa, x2 = 0.7935 | – | -2.05 | –
5000 kPa, x2 = 0.8004 | – | -1.98 | –
5000 kPa, x2 = 0.8139 | -2.1 | -1.86 | –
5000 kPa, x2 = 0.846 | -2.14 | -1.51 | -1.07
5000 kPa, x2 = 0.8522 | -2.07 | – | –
5000 kPa, x2 = 0.876 | -1.76 | -1.21 | –
5000 kPa, x2 = 0.904 | -1.36 | -0.922 | -0.65
5000 kPa, x2 = 0.9303 | -0.998 | -0.722 | –
5000 kPa, x2 = 0.9549 | -0.638 | -0.439 | -0.297
5000 kPa, x2 = 0.9781 | -0.308 | -0.208 | –
5000 kPa, x2 = 0.9957 | – | – | -0.00454
5500 kPa, x2 = 0.111 | -0.3 | -0.304 | -0.305
5500 kPa, x2 = 0.2086 | -0.571 | -0.574 | -0.579
5500 kPa, x2 = 0.2951 | -0.804 | -0.802 | –
5500 kPa, x2 = 0.3723 | -0.995 | -1 | -1.02
5500 kPa, x2 = 0.4416 | -1.16 | -1.17 | –
5500 kPa, x2 = 0.5041 | -1.32 | -1.32 | -1.37
5500 kPa, x2 = 0.5609 | -1.44 | -1.46 | –
5500 kPa, x2 = 0.6126 | – | -1.6 | -1.64
5500 kPa, x2 = 0.66 | -1.68 | -1.71 | -1.75
5500 kPa, x2 = 0.7035 | -1.75 | -1.79 | -1.84
5500 kPa, x2 = 0.7199 | – | – | -1.87
5500 kPa, x2 = 0.7436 | -1.84 | -1.86 | -1.92
5500 kPa, x2 = 0.7587 | – | – | -1.95
5500 kPa, x2 = 0.7661 | – | – | -1.95
5500 kPa, x2 = 0.7734 | – | – | -1.97
5500 kPa, x2 = 0.7806 | -1.91 | -1.94 | -1.95
5500 kPa, x2 = 0.7947 | – | – | -1.82
5500 kPa, x2 = 0.815 | -1.96 | -2.01 | -1.64
5500 kPa, x2 = 0.8281 | – | -2.03 | –
5500 kPa, x2 = 0.8345 | – | -2.03 | –
5500 kPa, x2 = 0.8408 | – | -2.03 | –
5500 kPa, x2 = 0.847 | -2.01 | -1.93 | -1.36
5500 kPa, x2 = 0.8768 | -2.04 | -1.52 | –
5500 kPa, x2 = 0.9047 | -2.07 | -1.21 | -0.841
5500 kPa, x2 = 0.91 | -2.07 | – | –
5500 kPa, x2 = 0.9153 | -2.04 | – | –
5500 kPa, x2 = 0.9205 | -1.95 | – | –
5500 kPa, x2 = 0.9308 | -1.69 | -0.875 | –
5500 kPa, x2 = 0.9553 | -1.08 | -0.564 | -0.396
5500 kPa, x2 = 0.9783 | -0.498 | -0.265 | –
6000 kPa, x2 = 0.2097 | – | – | -0.562
6000 kPa, x2 = 0.2965 | – | – | -0.778
6000 kPa, x2 = 0.3739 | – | – | -0.994
6000 kPa, x2 = 0.4433 | – | – | -1.17
6000 kPa, x2 = 0.5058 | – | – | -1.32
6000 kPa, x2 = 0.5626 | – | – | -1.45
6000 kPa, x2 = 0.6142 | – | – | -1.57
6000 kPa, x2 = 0.6615 | – | – | -1.66
6000 kPa, x2 = 0.7049 | – | – | -1.76
6000 kPa, x2 = 0.7448 | – | – | -1.83
6000 kPa, x2 = 0.7818 | – | – | -1.9
6000 kPa, x2 = 0.7958 | – | – | -1.92
6000 kPa, x2 = 0.816 | – | – | -1.94
6000 kPa, x2 = 0.829 | – | – | -1.95
6000 kPa, x2 = 0.8354 | – | – | -1.91
6000 kPa, x2 = 0.8479 | – | – | -1.76
6000 kPa, x2 = 0.9052 | – | – | -1.09
6000 kPa, x2 = 0.9555 | – | – | -0.501
6500 kPa, x2 = 0.1123 | – | – | -0.281
6500 kPa, x2 = 0.2108 | – | – | -0.536
6500 kPa, x2 = 0.2978 | – | – | -0.751
6500 kPa, x2 = 0.3753 | – | – | -0.972
6500 kPa, x2 = 0.4448 | – | – | -1.1
6500 kPa, x2 = 0.5074 | – | – | -1.25
6500 kPa, x2 = 0.5641 | – | – | -1.37
6500 kPa, x2 = 0.6157 | – | – | -1.47
6500 kPa, x2 = 0.6629 | – | – | -1.58
6500 kPa, x2 = 0.7062 | – | – | -1.67
6500 kPa, x2 = 0.746 | – | – | -1.73
6500 kPa, x2 = 0.7828 | – | – | -1.76
6500 kPa, x2 = 0.817 | – | – | -1.8
6500 kPa, x2 = 0.8487 | – | – | -1.83
6500 kPa, x2 = 0.8782 | – | – | -1.82
6500 kPa, x2 = 0.895 | – | – | -1.7
6500 kPa, x2 = 0.9058 | – | – | -1.56
6500 kPa, x2 = 0.9215 | – | – | -1.27
6500 kPa, x2 = 0.9316 | – | – | -1.13
6500 kPa, x2 = 0.9415 | – | – | -0.986
6500 kPa, x2 = 0.9558 | – | – | -0.69
6500 kPa, x2 = 0.9786 | – | – | -0.329
6500 kPa, x2 = 0.9916 | – | – | -0.111
